# Read-outs that look alike come from different tables or passages of the source.
# Legend:
# HL60 = test: cells
# Method: (§1) 10^4 cells per well were seeded in 96-well culture plates with or without one of the test compounds. Various concentrations for the test compound were examined. […] The drug concentration resulting in total growth inhibition (TGI) is determined when Ti=Tz.
# (§2) Cells were seeded in a 96-well flat-bottomed plate (2,500 to 3,000 cells per well). […] After being incubated at 37° C. for 2 h, the supernatant was removed and 200 μl/well of DMSO were added to dissolve the remaining MTT dye. The absorbance at 570 nm in each well was determined using a plate reader.
# U937 = test: cells
# Method: as §1, §2
# K562 = test: cells
# Method: as §1, §2
# NB4 = test: cells
# Method: as §1, §2
# Kasumi-1 = test: MTT cell viability assay, Kasumi-1; type: cell-based
# [1] = test system: MDA-MB-231 (estrogen-independent breast cancer); test: SRB assay, MDA-MB-231; type: cell-based; conditions: Homo sapiens, MDA-MB-231 cells, 48 h
# Method: (§3) Human cancer A549 (non-small cell lung cancer), MDA-MB-231 (estrogen-independent breast cancer), Hep 3B (hepatoma), and HA22T (hepatoma) cells were seeded in 96-well plates in medium with 5% FBS. After 24 h, cells were fixed with 10% trichloroacetic acid (TCA) to represent cell population at the time of compound addition (T0). After additional incubation of DMSO or test compound for 48 h, cells were fixed with 10% TCA and SRB at 0.4% (w/v) in 1% acetic acid was added to stain cells. Unbound SRB was washed out by 1% acetic acid and SRB bound cells were solubilized with 10 mM Trizrna base. The absorbance was read at a wavelength of 515 nm. Using the absorbance measurements of time zero (T0), the control group (C), and the cell growth in the presence of the compound (Ti), the percentage growth was calculated at each of the compound concentrations levels.
# PC-3 cells = test: Western blot analysis; type: cell-based; conditions: PC-3 cells, 1, 2.5, or 5 μM, 48 hours
# Method: PC-3 cells treated with a test compound at 1, 2.5, or 5 μM in RPMI 1640 supplemented with 10% FBS for 48 hours. The cells were collected and sonicated. Protein concentrations in the resultant lysates were determined by a Bradford protein assay kit (Bio-Rad, Hercules, Calif.). The protein lysate, containing the same amount of proteins, were subjected to 10% SDS-polyacrylarnide gel (10%) electrophoresis. The proteins on the gel were then transferred onto an Immobilon-nitrocellulose membrane (Millipore, Bellerica, Mass.) in a semi-dry transfer cell. The transblotted membrane was washed twice with tris-buffered saline containing 0.1% Tween 20 (TBST). After being blocked with TBST containing 5% nonfat milk for 40 min, the membrane was incubated with a primary antibody specific to Acetyl-H3 (antibody obtained from Upstate Biotechnology, Inc., Lake Placid, N.Y.), H3 (Upstate Biotechnology), Acetyl α-tubulin (Sigma-Aldrich, St. Louis, Mo.), phospho-Akt (Serine 473) (Cell Signaling Technologies, Danvers, Mass.), Akt (Cell Signaling Technologies), Acetyl p53 (Santa Cruz Biotechnology, Santa Cruz, Calif.), p53 (Santa Cruz Biotechnology), p21 (Santa Cruz Biotechnology), or α-tubulin (Sigma-Aldrich, St. Louis, Mo.) (1:3000 dilution) in TBST/1% nonfat milk at 4 overnight. The membrane was washed three times with TBST for a total of 15 min and then incubated with a goat anti-rabbit or anti-mouse IgG antibody conjugated with horseradish (diluted 1:3000) for 1 h at room temperature. After being washed for at least three times with TBST, the signal intensity for each protein band was determined.
# HA22T (hepatoma) = test: SRB assay, HA22T; type: cell-based, Human; conditions: HA22T cells, 48 h, read-out: HA22T liver GI50
# Method: as §3
# [2] = test system: A549 (non-small cell lung cancer); test: SRB assay, A549; type: cell-based, Human; conditions: A549 cells, 48 h
# Method: as §3
# Hep 3B (hepatoma) = test: SRB assay, Hep 3B; type: cell-based; conditions: Homo sapiens, Hep3B, Hep-3B cells, 48 h, read-out: Hep-3B liver GI50
# Method: as §3
# MV4-11 = test: cells
# Method: as §1, §2
# [3] = HL60 leukemia cells, MTT, 48 or 72 hr
# [4] = U937 leukemia cells, MTT, 48 or 72 hr
# [5] = K562 leukemia cells, MTT, 48 or 72 hr
# [6] = NB4 leukemia cells, MTT, 48 or 72 hr
# [7] = Kasumi-1 leukemia cells, MTT, 48 or 72 hr
# [8] = Homo sapiens, U-937, read-out: LC50
# [9] = Homo sapiens, K562, read-out: LC50
# [10] = Homo sapiens, NB-4, read-out: LC50
compound,measurement,setting,value
"Nc1ccn([C@@H]2O[C@H](CO)[C@@H](O)[C@@H]2O)c(=O)n1 [Ara-C, reference compound]",GI50,HL60; [3],445 nM
same,TGI,HL60; [3],4344.3 nM
same,GI50,U937; [4],46.6 nM
same,TGI,U937; [4],109.7 nM
same,CC50,"U937; read-out: LC50, U937 leukemia cells, MTT, 48 or 72 hr",665 nM
same,GI50,K562; [5],> 10000 nM
same,TGI,K562; [5],>10000 nM
same,CC50,"K562; read-out: LC50, K562 leukemia cells, MTT, 48 or 72 hr",> 10000 nM
same,GI50,NB4; [6],448 nM
same,TGI,NB4; [6],2324.0 nM
same,CC50,"NB4; read-out: LC50, NB4 leukemia cells, MTT, 48 or 72 hr",7320 nM
same,GI50,Kasumi-1; [7],> 10000 nM
same,TGI,Kasumi-1; [7],>10000 nM
same,CC50,"Kasumi-1; Kasumi-1 leukemia cells, MTT, 48 or 72 hr, read-out: LC50 (the source's name)",> 10000 nM
"O=C(C=Cc1ccc2c(ccn2S(=O)(=O)c2ccccc2)c1)NO [Compound 3, 3-(1-Benzenesulfonyl-1H-indol-5-yl)-N-hydroxy-acrylamide]",TGI,HL60; [3],535.8 nM
same,GI50,"HL60; Homo sapiens, HL-60",242 nM
same,GI50,"U937; Homo sapiens, U-937",162 nM
same,CC50,U937; [8],718 nM
same,TGI,U937; [4],440.0 nM
same,GI50,"K562; Homo sapiens, K562",9020 nM
same,CC50,K562; [9],> 10000 nM
same,TGI,K562; [5],>10000 nM
same,GI50,"NB4; Homo sapiens, NB-4",223 nM
same,CC50,NB4; [10],779 nM
same,TGI,NB4; [6],500.9 nM
same,GI50,[1],480 nM
same,H3 expression,PC-3 cells,upregulated
same,histone deacetylation,PC-3 cells,inhibited
same,tubulin acetylation,PC-3 cells,upregulated
same,GI50,HA22T (hepatoma); Homo sapiens,1150 nM
same,GI50,[2]; Homo sapiens,960 nM
same,GI50,Hep 3B (hepatoma),410 nM
same,GI50,"Kasumi-1; Homo sapiens, Kasumi-1 leukemia cells, MTT, 48 or 72 hr",96.6 nM
same,CC50,"Kasumi-1; Homo sapiens, Kasumi-1 leukemia cells, MTT, 48 or 72 hr, read-out: LC50 (the source's name)",694 nM
same,TGI,Kasumi-1; [7],393.0 nM
"COc1ccc(S(=O)(=O)n2ccc3cc(C=CC(=O)NO)ccc32)cc1 [Compound 4, N-hydroxy-3-[1-(4-methoxy-benzenesulfonyl)-1H-indol-5-yl]-acrylamide]",GI50,[1],750 nM
same,GI50,HA22T (hepatoma); Homo sapiens,1560 nM
same,GI50,[2]; Homo sapiens,1310 nM
same,GI50,Hep 3B (hepatoma),550 nM
"O=C(C=Cc1ccc2c(ccn2S(=O)(=O)c2ccc(F)cc2)c1)NO [Compound 5, 3-[1-(4-fluoro-benzenesulfonyl)-1H-indol-5-yl]-N-hydroxy-acrylamide]",GI50,[1],660 nM
same,GI50,HA22T (hepatoma); Homo sapiens,2300 nM
same,GI50,[2]; Homo sapiens,1590 nM
same,GI50,Hep 3B (hepatoma),640 nM
"O=C(C=Cc1ccc2c(ccn2S(=O)(=O)c2ccc([N+](=O)[O-])cc2)c1)NO [Compound 6, N-hydroxy-3-[1-(4-nitro-benzenesulfonyl)-1H-indol-5-yl]-acrylamide]",GI50,[1],750 nM
same,GI50,HA22T (hepatoma); Homo sapiens,1980 nM
same,GI50,[2]; Homo sapiens,2120 nM
same,GI50,Hep 3B (hepatoma),560 nM
"Nc1ccc(S(=O)(=O)n2ccc3cc(C=CC(=O)NO)ccc32)cc1 [Compound 7, 3-[1-(4-Amino-benzenesulfonyl)-1H-indol-5-yl]-N-hydroxy-acrylamide]",GI50,[1],> 10000 nM
same,GI50,HA22T (hepatoma); Homo sapiens,> 10000 nM
same,GI50,[2]; Homo sapiens,> 10000 nM
same,GI50,Hep 3B (hepatoma),> 10000 nM
"COc1ccc(S(=O)(=O)n2ccc3cc(C=CC(=O)NO)ccc32)cc1OC [Compound 8, 3-[1-(3,4-dimethoxy-benzenesulfonyl)-1H-indol-5-yl]-N-hydroxy-acrylamide]",GI50,[1],370 nM
same,GI50,HA22T (hepatoma); Homo sapiens,930 nM
same,GI50,[2]; Homo sapiens,930 nM
same,GI50,Hep 3B (hepatoma),360 nM
"O=C(C=Cc1ccc2c(c1)CCN2S(=O)(=O)c1ccccc1)NO [Compound 12, 3-(1-benzenesulfonyl-2,3-dihydro-1H-indol-5-yl)-N-hydroxy-acrylamide]",TGI,HL60; [3],65.3 nM
same,GI50,"HL60; Homo sapiens, HL-60",32.9 nM
same,GI50,"U937; Homo sapiens, U-937",54.7 nM
same,CC50,U937; [8],> 10000 nM
same,TGI,U937; [4],8330.0 nM
same,GI50,"MV4-11; Homo sapiens, MV4-11",13.1 nM
same,CC50,"MV4-11; Homo sapiens, MV4-11, read-out: LC50",87.2 nM
same,TGI,"MV4-11; MV4-11 leukemia cells, MTT, 48 or 72 hr",50.2 nM
same,GI50,"K562; Homo sapiens, K562",149 nM
same,CC50,K562; [9],> 10000 nM
same,TGI,K562; [5],982.0 nM
same,GI50,"NB4; Homo sapiens, NB-4",31.5 nM
same,CC50,NB4; [10],91 nM
same,TGI,NB4; [6],61.2 nM
same,GI50,[1],250 nM
same,H3 expression,PC-3 cells,upregulated
same,histone deacetylation,PC-3 cells,inhibited
same,tubulin acetylation,PC-3 cells,upregulated
same,GI50,HA22T (hepatoma); Homo sapiens,620 nM
same,GI50,[2]; Homo sapiens,700 nM
same,GI50,Hep 3B (hepatoma),210 nM
"COc1ccc(S(=O)(=O)N2CCc3cc(C=CC(=O)NO)ccc32)cc1 [Compound 13, N-hydroxy-3-[1-(4-methoxy-benzenesulfonyl)-2,3-dihydro-1H-indol-5-yl]-acrylamide]",GI50,[1],160 nM
same,GI50,HA22T (hepatoma); Homo sapiens,540 nM
same,GI50,[2]; Homo sapiens,320 nM
same,GI50,Hep 3B (hepatoma),140 nM
"O=C(C=Cc1ccc2c(c1)CCN2S(=O)(=O)c1ccc(F)cc1)NO [Compound 14, 3-[1-(4-fluoro-benzenesulfonyl)-2,3-dihydro-1H-indol-5-yl]-N-hydroxy-acrylamide]",GI50,[1],370 nM
same,GI50,HA22T (hepatoma); Homo sapiens,1200 nM
same,GI50,[2]; Homo sapiens,600 nM
same,GI50,Hep 3B (hepatoma),250 nM
"O=C(C=Cc1ccc2c(c1)CCN2S(=O)(=O)c1ccc([N+](=O)[O-])cc1)NO [Compound 15, N-hydroxy-3-[1-(4-nitro-benzenesulfonyl)-2,3-dihydro-1H-indol-5-yl]-acrylamide]",GI50,[1],450 nM
same,GI50,HA22T (hepatoma); Homo sapiens,740 nM
same,GI50,[2]; Homo sapiens,800 nM
same,GI50,Hep 3B (hepatoma),280 nM
"Nc1ccc(S(=O)(=O)N2CCc3cc(C=CC(=O)NO)ccc32)cc1 [Compound 16, 3-[1-(4-amino-benzenesulfonyl)-2,3-dihydro-1H-indol-5-yl]-N-hydroxy-acrylamide]",GI50,[1],> 10000 nM
same,GI50,HA22T (hepatoma); Homo sapiens,> 10000 nM
same,GI50,[2]; Homo sapiens,> 10000 nM
same,GI50,Hep 3B (hepatoma),> 10000 nM
"COc1ccc(S(=O)(=O)N2CCc3cc(C=CC(=O)NO)ccc32)cc1OC [Compound 17, 3-[1-(3,4-dimethoxy-benzenesulfonyl)-2,3-dihydro-1H-indol-5-yl]-N-hydroxy-acrylamide]",GI50,[1],190 nM
same,GI50,HA22T (hepatoma); Homo sapiens,620 nM
same,GI50,[2]; Homo sapiens,320 nM
same,GI50,Hep 3B (hepatoma),160 nM
"O=C(CCCCCCC(=O)Nc1ccccc1)NO [SAHA, reference compound]",GI50,HL60; [3],455 nM
same,TGI,HL60; [3],811.9 nM
same,CC50,U937,5850 nM
same,GI50,U937; [4],590 nM
same,TGI,U937; [4],2006.9 nM
same,CC50,K562,> 10000 nM
same,GI50,K562; [5],> 10000 nM
same,TGI,K562; [5],>10000 nM
same,CC50,NB4,928 nM
same,GI50,NB4; [6],303 nM
same,TGI,NB4; [6],615.8 nM
same,H3 expression,PC-3 cells,upregulated
same,histone deacetylation,PC-3 cells,inhibited
same,tubulin acetylation,PC-3 cells,upregulated
same,GI50,HA22T (hepatoma),2240 nM
same,GI50,[2],2370 nM
same,CC50,Kasumi-1,917 nM
same,TGI,Kasumi-1; [7],604.75 nM
